# Measurements from patent US12384800B2, “Antitumoral compounds” (priority 2017, dated 2025).
# Tests used:
# HT1080 tumors = experiment: Human fibrosarcoma xenograft, total diameter (tumor + leg)
# Method: Female athymic nu/nu mice (Harlan Laboratories Models, S.L. Barcelona, Spain or Envigo, Spain) were utilized for all experiments. Animal were housed in individually ventilated cages Sealsafe® Plus, Techniplast S.P.A.), up to ten per cage on a 12-hour light-dark cycle at 21-23° C. and 40-60% humidity. […] Animals were acclimated for at least 5 days prior to tumor implantation with a tumor cell suspension.
# HT1080 cells were maintained in vitro at 37° C. with 5% CO2 in Minimum Essential Medium Eagle (MEME) (Sigma-Aldrich, Co). Each animal was orthotopically implanted into gastroecnemius muscle by an intramuscular injection using a 26G needle and a 1 cc syringe at 4-6 weeks of age, with 10×10^6 HT1080 cells, suspended in serum free medium, without antibiotics.
# Treatment tolerability was assessed by monitoring body weight evolution, clinical signs of systemic toxicity, as well as evidences of local damage in the injection site.
# In xenograft studies with HT1080 cell line: • Total diameter (tumor+leg) measurements were determined by using digital caliper (Fowler Sylvac, S235PAT).
# Treatments producing >20% lethality and/or 20% net body weight loss were considered toxic.
# [1] = MTD (Maximum Tolerated Dose) determination, single iv administration; assay type: in vivo; conditions: mice; iv/SD (single dose); monitored up to 14 days
# Excerpt: (§1) Female CD-1 or Athymic Nude-Fox1 nu/nu mice (Envigo) were utilized for all experiments. […] Animals were acclimated for five days prior to being individually tattoo-identified. Animal protocols were reviewed and approved according to the regional Institutional Animal Care and Use Committees.
# (§2) Mice were randomly allocated into experimental groups and intravenously administered, once for the MTD (Maximum Tolerated Dose) determination or one administration a week during three consecutive weeks, for the MTMD (Maximum Tolerated Multiple Dose) determination study. The animals were administered with white formulation or with compound dissolved in the experimental formulation at different concentrations. The volume administered was always […]. Once administered, animals were monitored for clinical signs of systemic toxicity, changes in body weight and mortality up to 14 days after the administration.
# [2] = MTMD (Maximum Tolerated Multiple Dose) determination, iv weekly x 3; assay type: in vivo; conditions: mice; iv/Q7d × 3
# Excerpt: as §1, §2
# [3] = system: HT29 cells (colorectal adenocarcinoma); experiment: cells; conditions: HT29, SRB; for GI50: 72 hours treatment; for TGI: total cell growth inhibition; for TGI / CC50: 72 hours; for CC50: read-out: LC50, 50% net cell killing
# How it was run: (§3)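 Cells seeded at 5000/well, attached 18 h, then exposed 72 h to ten 2/5 serial dilutions (10 to 0.003 μg/mL; 1% DMSO final) in triplicate; time-zero plate fixed. SRB staining after glutaraldehyde fixation; growth effects by NCI algorithm, four-parameter logistic fit.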
# [4] = system: MDA-MB-231 cells (breast adenocarcinoma); experiment: cells; conditions: MDA-MB-231, SRB; for GI50: 72 hours treatment; for TGI: total cell growth inhibition; for TGI / CC50: 72 hours; for CC50: read-out: LC50, 50% net cell killing
# How it was run: as §3
# [5] = system: PSN1 cells (pancreas adenocarcinoma); experiment: cells; conditions: PSN1, SRB; for GI50: 72 hours treatment; for TGI: total cell growth inhibition; for TGI / CC50: 72 hours; for CC50: read-out: LC50, 50% net cell killing
# How it was run: as §3
# [6] = system: A549 cells (lung carcinoma, NSCLC); experiment: cells; conditions: A549, SRB; for GI50: 72 hours treatment; for TGI: total cell growth inhibition; for TGI / CC50: 72 hours; for CC50: read-out: LC50, 50% net cell killing
# How it was run: as §3
# [7] = Day 0.0, iv Days 0, 7 and 14, compound C 3.0 mg/kg, 4-S […], 12-S […]
# [8] = Day 2.0, iv Days 0, 7 and 14, compound C 3.0 mg/kg, 4-S […], 12-S […]
# [9] = Day 5.0, iv Days 0, 7 and 14, compound C 3.0 mg/kg, 4-S […], 12-S […]
# [10] = Day 7.0, iv Days 0, 7 and 14, compound C 3.0 mg/kg, 4-S […], 12-S […]
# [11] = Day 9.0, iv Days 0, 7 and 14, compound C 3.0 mg/kg, 4-S […], 12-S […]
# [12] = Day 12.0, iv Days 0, 7 and 14, compound C 3.0 mg/kg, 4-S […], 12-S […]
# [13] = Day 14.0, iv Days 0, 7 and 14, compound C 3.0 mg/kg, 4-S […], 12-S […]
# [14] = Day 16.0, iv Days 0, 7 and 14, compound C 3.0 mg/kg, 4-S […], 12-S […]
# [15] = Day 19.0, iv Days 0, 7 and 14, compound C 3.0 mg/kg, 4-S […], 12-S […]
# [16] = Day 21.0, iv Days 0, 7 and 14, compound C 3.0 mg/kg, 4-S […], 12-S […]
# [17] = Day 23.0, iv Days 0, 7 and 14, compound C 3.0 mg/kg, 4-S […], 12-S […]
structure (smiles),measurement,setting,value
COc1c(C)cc2c(c1O)[C@@H]1[C@@H]3[C@@H]4SC[C@]5(N[C@H](CO)Cc6c5[nH]c5ccccc65)C(=O)OC[C@@H](c5c6c(c(C)c(OC(C)=O)c54)OCO6)N3[C@@H](O)[C@H](C2)N1C [Compound 4-S],Total diameter (tumor + leg),HT1080 tumors; [7],7.5 mm
same,Total diameter (tumor + leg),HT1080 tumors; [8],7.7 mm
same,Total diameter (tumor + leg),HT1080 tumors; [9],8.3 mm
same,Total diameter (tumor + leg),HT1080 tumors; [10],8.8 mm
same,Total diameter (tumor + leg),HT1080 tumors; [11],8.4 mm
same,Total diameter (tumor + leg),HT1080 tumors; [12],8.4 mm
same,Total diameter (tumor + leg),HT1080 tumors; [13],9.6 mm
same,Total diameter (tumor + leg),HT1080 tumors; [14],10.0 mm
same,Total diameter (tumor + leg),HT1080 tumors; [15],10.4 mm
same,Total diameter (tumor + leg),HT1080 tumors; [16],12.1 mm
same,Total diameter (tumor + leg),HT1080 tumors; [17],12.7 mm
same,MTD,[1],1.0 mg/kg
COc1ccc2oc3c(c2c1)CCN[C@]31CS[C@@H]2c3c(OC(C)=O)c(C)c4c(c3[C@H](COC1=O)N1[C@@H]2[C@H]2c3c(cc(C)c(OC)c3O)C[C@@H]([C@@H]1O)N2C)OCO4 [Compound 35],MTMD,[2],0.25 mg/kg
COc1c(C)cc2c(c1O)[C@@H]1[C@@H]3[C@@H]4SC[C@]5(N[C@H](C)Cc6c5[nH]c5ccccc65)C(=O)OC[C@@H](c5c6c(c(C)c(OC(C)=O)c54)OCO6)N3[C@@H](O)[C@H](C2)N1C [Compound C],Total diameter (tumor + leg),HT1080 tumors; Day 0,7.5 mm
same,Total diameter (tumor + leg),HT1080 tumors; [7],7.5 mm
same,Total diameter (tumor + leg),HT1080 tumors; Day 2,8.8 mm
same,Total diameter (tumor + leg),HT1080 tumors; [8],8.8 mm
same,Total diameter (tumor + leg),HT1080 tumors; Day 5,9.0 mm
same,Total diameter (tumor + leg),HT1080 tumors; [9],9.0 mm
same,Total diameter (tumor + leg),HT1080 tumors; Day 7,9.6 mm
same,Total diameter (tumor + leg),HT1080 tumors; [10],9.6 mm
same,Total diameter (tumor + leg),HT1080 tumors; Day 9,10.2 mm
same,Total diameter (tumor + leg),HT1080 tumors; [11],10.2 mm
same,Total diameter (tumor + leg),HT1080 tumors; Day 12,10.2 mm
same,Total diameter (tumor + leg),HT1080 tumors; [12],10.2 mm
same,Total diameter (tumor + leg),HT1080 tumors; Day 14,11.2 mm
same,Total diameter (tumor + leg),HT1080 tumors; [13],11.2 mm
same,Total diameter (tumor + leg),HT1080 tumors; Day 16,12.4 mm
same,Total diameter (tumor + leg),HT1080 tumors; [14],12.4 mm
same,Total diameter (tumor + leg),HT1080 tumors; Day 19,13.3 mm
same,Total diameter (tumor + leg),HT1080 tumors; [15],13.3 mm
same,Total diameter (tumor + leg),HT1080 tumors; Day 21,15.2 mm
same,Total diameter (tumor + leg),HT1080 tumors; [16],15.2 mm
same,Total diameter (tumor + leg),HT1080 tumors; Day 23,18.0 mm
same,Total diameter (tumor + leg),HT1080 tumors; [17],18.0 mm
same,GI50,[3],20.8 nM
same,TGI,[3],2.34E−08 Molar
same,CC50,[3],> 130 nM
same,GI50,[4],26 nM
same,TGI,[4],5.46E−08 Molar
same,CC50,[4],> 130 nM
same,GI50,[5],36.4 nM
same,TGI,[5],4.42E−08 Molar
same,CC50,[5],65 nM
same,GI50,[6],27.3 nM
same,TGI,[6],6.63E−08 Molar
same,CC50,[6],> 130 nM
same,MTMD,[2],3.0 mg/kg
COc1c(C)cc2c(c1O)[C@@H]1[C@@H]3[C@@H]4SC[C@]5(N[C@@H](C)Cc6c5[nH]c5ccccc65)C(=O)OC[C@@H](c5c6c(c(C)c(OC(C)=O)c54)OCO6)N3[C@@H](O)[C@H](C2)N1C [Compound D],Total diameter (tumor + leg),HT1080 tumors; Day 0,7.5 mm
same,Total diameter (tumor + leg),"HT1080 tumors; Day 0, iv Days 0, 7 and 14, PM01183 […], Compound D 0.5 mg/kg",7.7 mm
same,Total diameter (tumor + leg),HT1080 tumors; Day 2,8.2 mm
same,Total diameter (tumor + leg),"HT1080 tumors; Day 2, iv Days 0, 7 and 14, PM01183 […], Compound D 0.5 mg/kg",9.5 mm
same,Total diameter (tumor + leg),HT1080 tumors; Day 5,7.5 mm
same,Total diameter (tumor + leg),"HT1080 tumors; Day 5, iv Days 0, 7 and 14, PM01183 […], Compound D 0.5 mg/kg",8.8 mm
same,Total diameter (tumor + leg),HT1080 tumors; Day 7,7.4 mm
same,Total diameter (tumor + leg),"HT1080 tumors; Day 7, iv Days 0, 7 and 14, PM01183 […], Compound D 0.5 mg/kg",8.7 mm
same,Total diameter (tumor + leg),HT1080 tumors; Day 9,8.1 mm
same,Total diameter (tumor + leg),"HT1080 tumors; Day 9, iv Days 0, 7 and 14, PM01183 […], Compound D 0.5 mg/kg",9.4 mm
same,Total diameter (tumor + leg),HT1080 tumors; Day 12,7.9 mm
same,Total diameter (tumor + leg),"HT1080 tumors; Day 12, iv Days 0, 7 and 14, PM01183 […], Compound D 0.5 mg/kg",9.4 mm
same,Total diameter (tumor + leg),HT1080 tumors; Day 14,7.7 mm
same,Total diameter (tumor + leg),"HT1080 tumors; Day 14, iv Days 0, 7 and 14, PM01183 […], Compound D 0.5 mg/kg",10.1 mm
same,Total diameter (tumor + leg),HT1080 tumors; Day 16,8.8 mm
same,Total diameter (tumor + leg),"HT1080 tumors; Day 16, iv Days 0, 7 and 14, PM01183 […], Compound D 0.5 mg/kg",10.9 mm
same,Total diameter (tumor + leg),HT1080 tumors; Day 19,10.2 mm
same,Total diameter (tumor + leg),"HT1080 tumors; Day 19, iv Days 0, 7 and 14, PM01183 […], Compound D 0.5 mg/kg",11.2 mm
same,Total diameter (tumor + leg),HT1080 tumors; Day 21,11.2 mm
same,Total diameter (tumor + leg),"HT1080 tumors; Day 21, iv Days 0, 7 and 14, PM01183 […], Compound D 0.5 mg/kg",12.1 mm
same,Total diameter (tumor + leg),HT1080 tumors; Day 23,12.2 mm
same,Total diameter (tumor + leg),"HT1080 tumors; Day 23, iv Days 0, 7 and 14, Compound D 0.5 mg/kg",13.0 mm
same,Total diameter (tumor + leg),"HT1080 tumors; Day 26, iv Days 0, 7 and 14, Compound D 0.5 mg/kg",15.0 mm
same,Total diameter (tumor + leg),HT1080 tumors; Day 27,13.2 mm
same,Total diameter (tumor + leg),"HT1080 tumors; Day 28, iv Days 0, 7 and 14, Compound D 0.5 mg/kg",18.0 mm
same,Total diameter (tumor + leg),HT1080 tumors; Day 30,14.6 mm
same,Total diameter (tumor + leg),HT1080 tumors; Day 33,16.3 mm
same,Total diameter (tumor + leg),HT1080 tumors; Day 35,18.0 mm
same,GI50,[3],10.3 nM
same,TGI,[3],2.34E−08 Molar
same,CC50,[3],> 130 nM
same,GI50,[4],9.88 nM
same,TGI,[4],1.95E−08 Molar
same,CC50,[4],53.3 nM
same,GI50,[5],20.8 nM
same,TGI,[5],2.21E−08 Molar
same,CC50,[5],24.7 nM
same,GI50,[6],12.5 nM
same,TGI,[6],2.86E−08 Molar
same,CC50,[6],> 130 nM
same,MTMD,[2],0.5 mg/kg
